From PMC8850458, “The AUTOTAC chemical biology platform for targeted protein degradation via the autophagy-lysosome system” (Nature Communications, 2022)
Several values for one entry are separate records, joined by “and”; a condition that tells them apart may be missing. Equal values may be shown once.

How the values were obtained:
p62 = biological target: T1, p62 (Homo sapiens, UniProt Q13501); assay: In vitro pulldown assay with biotinylated p62 ligands; format: binding; conditions: biotinylated ligand, HEK293T extracts
T1 construct: expressed in transfected cells; host or cells: HEK293T, transient; whole lysate used
Procedure: (§1) A set of synthetic 12-mer peptides corresponding to the N-terminal sequences of the V-BiP (V[19]-[…]-biotin) and V-RGS4 (V^2-[…]-biotin) was C-terminally biotin-conjugated. Alternatively, biotinylated versions of YOK-1304, YT-8-8, YTK-1105, YOK-2204, and PBA were synthesized. To cross-link the above peptides with resin beads, biotin-conjugated peptides, and small molecule were mixed with high-capacity streptavidin agarose resin (Thermo Fisher Scientific) at a ratio of 0.5 mg of peptide per 1 mL of settled resin and incubated on a rotator at 4 °C overnight. After washing five times with PBS, the peptide/small molecule-bead conjugates were diluted with PBS at a 1:1 ratio. To prepare protein extracts, cells were collected by centrifugation and lysed by freezing and thawing at least 10 times in hypotonic buffer [10 mM KCl, 1.5 mM MgCl2, and 10 mM HEPES (pH 7.9)] with a protease inhibitor mix (Sigma). After centrifugation at 15,000 rpm 4 °C for 15 min, proteins were quantified using a BCA protein assay kit (Thermo Fisher Scientific). Total protein (200 μg) diluted in 300 μL of binding buffer [0.05% Tween-20, 10% glycerol, 0.2 M KCl, and 20 mM HEPES (pH 7.9)] were mixed with 50 μL of peptide/small molecule-bead resin and incubated at 4 °C for 2 h on a rotator. The protein-bound beads were collected by centrifugation at 2400 × g for 3 min and washed five times with binding buffer. The beads were resuspended in 25 μL of SDS sample buffer, heated at 95 °C for 5 min, and subjected to SDS/PAGE and immunoblotting.

[1] = tested on: p62 and LC3 punctate structures; assay: ICC of p62 and LC3 puncta formation and co-localization in HeLa cells; format: cell-based; conditions: 2.5 μM, 24 h
Procedure: (§2) Cells were cultured on coverslips coated with poly-L-lysine (Sigma) to observe cellular localization of proteins. Using 4% paraformaldehyde in PBS (pH 7.4), the cells were fixed for 15 min at room temperature and washed three times for 5 min with PBS. After fixing, the cells were permeabilized with 0.5% Triton X-100 in PBS solution for 15 min and washed three times with PBS for 5 min. The cells were blocked containing 2% BSA in PBS solution for 1 h at room temperature. Subsequently, the cells were incubated with primary antibody diluted in 2% BSA/PBS solution overnight at 4 °C, followed by washing the cells three times for 10 min with PBS and incubated with Alexa Fluor-conjugated secondary antibody diluted in 2% BSA/PBS for 30 min at room temperature. Using a DAPI-containing mounting medium (Vector Laboratories), the coverslips were mounted on glass slides. Confocal images were taken by laser scanning confocal microscope 510 Meta (Zeiss) and analyzed by Zeiss LSM Image Browser (ver. 4.2.0.121). […] Quantification results are shown as mean ± S.D. or S.E.M. of three independent experiments

mutant p62^D129A = biological target: T2, mutant p62^D129A (Homo sapiens, UniProt Q13501, D129A); assay: Pulldown assay with biotinylated YOK-2204, wild-type or D129A p62-myc; format: binding; conditions: HEK293T
T2 construct: expressed in transfected cells; host or cells: HEK293T, transient; cell extract used
Procedure: as §1, with “The beads were resuspended in 25 μL of SDS sample buffer, heated at 95 °C for 5 min, and subjected to SDS/PAGE and immunoblotting.” left out

[2] = WST-based cell viability assay in LNCaP cells; conditions: human, LNCaP cells
LNCaP cells = assay: WST-based cell viability assay in LNCaP cells; conditions: LNcaP, duplicates
NBR1 = biological target: T3, NBR1 (Homo sapiens, UniProt Q14596); assay: Competition pulldown assay with biotinylated YOK-2204 (NBR1); format: binding; conditions: HEK293T
T3 construct: pulldown assay in HEK293T cells using biotinylated YOK-2204; endogenous in cells; host or cells: HEK293T cell extract
T3 sequence (Q14596 whole entry): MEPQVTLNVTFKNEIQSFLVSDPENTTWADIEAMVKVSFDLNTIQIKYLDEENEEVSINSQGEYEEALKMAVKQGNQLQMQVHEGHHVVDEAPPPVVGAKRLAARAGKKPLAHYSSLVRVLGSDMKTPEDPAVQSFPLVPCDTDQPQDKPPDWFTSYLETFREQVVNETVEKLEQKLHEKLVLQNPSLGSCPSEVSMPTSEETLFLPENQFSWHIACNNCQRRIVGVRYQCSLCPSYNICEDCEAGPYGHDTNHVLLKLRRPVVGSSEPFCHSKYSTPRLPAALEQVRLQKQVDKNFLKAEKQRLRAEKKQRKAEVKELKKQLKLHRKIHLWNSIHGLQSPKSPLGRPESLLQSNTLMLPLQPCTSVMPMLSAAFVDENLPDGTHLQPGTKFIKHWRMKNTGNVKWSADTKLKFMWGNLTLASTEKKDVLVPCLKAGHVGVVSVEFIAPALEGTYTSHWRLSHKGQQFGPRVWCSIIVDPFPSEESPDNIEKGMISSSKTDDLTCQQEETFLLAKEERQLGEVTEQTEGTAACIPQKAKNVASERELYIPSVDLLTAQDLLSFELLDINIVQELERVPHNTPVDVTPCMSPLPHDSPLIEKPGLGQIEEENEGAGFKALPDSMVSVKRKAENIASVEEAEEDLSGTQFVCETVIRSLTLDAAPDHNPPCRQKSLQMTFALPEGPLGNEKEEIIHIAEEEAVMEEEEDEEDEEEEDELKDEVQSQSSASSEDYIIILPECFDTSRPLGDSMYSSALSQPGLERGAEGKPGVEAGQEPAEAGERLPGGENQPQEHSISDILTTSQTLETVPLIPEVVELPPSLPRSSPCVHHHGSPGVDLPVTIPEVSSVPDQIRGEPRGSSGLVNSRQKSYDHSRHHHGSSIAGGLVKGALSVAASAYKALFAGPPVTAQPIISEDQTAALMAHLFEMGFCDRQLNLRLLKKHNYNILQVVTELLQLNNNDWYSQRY
Procedure: as §1, with “The beads were resuspended in 25 μL of SDS sample buffer, heated at 95 °C for 5 min, and subjected to SDS/PAGE and immunoblotting.” left out

VCaP cells = tested on: VCaP cells; set-up: method as in printed; conditions: reviewer comment, ref not given; cited from earlier work
[3] = tested on: p62-positive and WIPI2-positive punctate structures; assay: ICC of WIPI2-p62 co-localization in HeLa cells; format: cell-based; conditions: HeLa, endogenous WIPI2, 2.5 μM, 24 h
Procedure: as §2
Supplementary Fig. 2. Characterization of p62-ZZ ligands (a, c, e) 3-D modeling of p62 […]
μM, 6 h). (m) Quantification of l for co-localization (n=3, 50 cells). Scale bar, 10 µm. (n) […]

[4] = tested on: p62 and the lysosomal marker LAMP1; assay: ICC of LAMP1-p62 co-localization in HeLa cells; format: cell-based; conditions: 2.5 μM, 24 h
Procedure: as §2, with “experiments […]” for “experiments”
Supplementary Fig. 2. Characterization of p62-ZZ ligands (a, c, e) 3-D modeling of p62 ZZ ligands YOK-1304, YOK-2204 and YTK-105, respectively. (b, d, f) 2-D diagram for YOK-1304, YOK-2204 and YTK-105, respectively. (g,h) ICC of HeLa cells treated with the indicated compounds (2.5 μM, 24 h). Scale bar, 10 μm. (i) Quantification of h for co-localization (n=3, 50 cells). (j) ICC of HeLa cells treated with the indicated compounds (2.5 μM, 24 h). Scale bar, 10 μm. (k) Quantification of j for co-localization (n=3, 50 cells). (l) ICC of HeLa cells transiently expressing WIPI2-GFP and treated with the indicated compounds (2.5 μM, 6 h). (m) Quantification of l for co-localization (n=3, 50 cells). Scale bar, 10 µm. (n) […]

[5] = WST assay viability relative to con = 100, LNcaP, duplicates
[6] = WST assay viability, AVG %, LNcaP

## CC(C)NCC(O)COc1ccc(OCCc2ccccc2)c(OCCc2ccccc2)c1 (centres unmarked) [YOK-2204]
p62
  binding of p62 in pulldown: bound
[1]
  LC3 puncta formation, AVG of cells of 50: 44.6667
  LC3 puncta formation, percentage AVG: 89.3333%
  p62-LC3 colocalization, AVG of cells of 50: 37
  p62-LC3 colocalization, percentage AVG: 74%
  p62 puncta formation, AVG of cells of 50: 40.3333
  p62 puncta formation, percentage AVG: 80.6667%
[1]; single experiments
  LC3 puncta formation, cells of 50 cells counted: 47 and 46 and 41
  p62-LC3 colocalization, cells of 50 cells counted: 43 and 37 and 31
  p62 puncta formation, cells of 50 cells counted: 43 and 37 and 41
Mutant p62^D129A
  interaction with mutant p62^D129A: severely crippled
[2]; [5]
  viability at 0.01 µM: 109%
  viability at 0.1 µM: 105%
  viability at 1 µM: 105%
  viability at 10 µM: 110%
  viability at 50 µM: 123%
  viability at 100 µM: 128%
[2]; [6]
  viability at 0.01 µM: 101%
  viability at 0.1 µM: 98.5%
  viability at 1 µM: 99.3%
  viability at 10 µM: 104%
  viability at 50 µM: 115%
  viability at 100 µM: 129%
LNCaP cells; 0.01uM
  WST assay raw reading: 2.286 and 1.976
  WST assay viability relative to con = 100: 93.5242
LNCaP cells; 0.1uM
  WST assay raw reading: 2.213 and 1.938
  WST assay viability relative to con = 100: 91.6264
LNCaP cells; 1uM
  WST assay raw reading: 2.21 and 1.972
  WST assay viability relative to con = 100: 93.3245
LNCaP cells; 10uM
  WST assay raw reading: 2.305 and 2.064
  WST assay viability relative to con = 100: 97.9191
LNCaP cells; 50uM
  WST assay raw reading: 2.575 and 2.249
  WST assay viability relative to con = 100: 107.158
LNCaP cells; 100uM
  WST assay raw reading: 2.662 and 2.714
  WST assay viability relative to con = 100: 130.381
NBR1
  interaction with NBR1: not NBR1

## N#Cc1ccc(O[C@H]2CC[C@H](NC(=O)c3ccc(N4CCC(CN5CCN(c6cc7c(cc6F)C(=O)N(C6CCC(=O)NC6=O)C7=O)CC5)CC4)nn3)CC2)cc1Cl (some centres unmarked) [ARV-110]
VCaP cells
  IC50, proliferation assay: low nM range

## OCCNCCNCc1cccc(OCc2ccc(F)cc2)c1 [YT-8-8]
[3]
  WIPI2-p62 colocalization, AVG of cells of 50: 43.3333
  WIPI2-p62 colocalization, percentage AVG: 86.6667%
[3]; single experiments
  WIPI2-p62 colocalization, cells of 50 cells counted: 42 and 39 and 49
p62
  binding of p62 in pulldown: bound
[4]
  LAMP1-p62 colocalization, AVG of cells of 50: 33
  LAMP1-p62 colocalization, percentage AVG: 66%
[4]; single experiments
  LAMP1-p62 colocalization, cells of 50 cells counted: 32 and 38 and 29
